Measurements from ChEMBL document CHEMBL1201862, “PubChem BioAssay data set” (2004).
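Five concentrations, 48 hours, 96-well plates. GI50 marks 50% less growth.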 Calls of active or inactive are those of the source. No stated cut-off is given here; in the data, active = GI50 up to about 1.1 µM and inactive = higher. Where a SMILES comes first, the peptide text is derived from it. [ ]: non-standard residue; d: D form. The star is where a group is joined. Phe(4-NO2) = N[CH](Cc1ccc([N+](=O)[O-])cc1)C(=O)O; Boc = CC(C)(C)OC(=O)*; OBn = c1ccc(CO*)cc1

Experiments:
Assay in all cases: inhibition of tumour cell growth, NCI panel, 48 h
DU-145 = tested on: DU-145
SF-268 = tested on: SF-268
NCI/ADR-RES = tested on: NCI/ADR-RES
OVCAR-3 = tested on: OVCAR-3
UO-31 = tested on: UO-31
NCI-H460 = tested on: NCI-H460
OVCAR-4 = tested on: OVCAR-4
CCRF-CEM = tested on: CCRF-CEM
CAKI-1 = tested on: CAKI-1
SNB-75 = tested on: SNB-75
Malme-3M = tested on: Malme-3M
TK-10 = tested on: TK-10
A498 = tested on: A498
BT-549 = tested on: BT-549
SR = tested on: SR
SF-539 = tested on: SF-539
HOP-92 = tested on: HOP-92
NCI-H226 = tested on: NCI-H226
HCC 2998 = tested on: HCC 2998
Hs-578T = tested on: Hs-578T

Measured: GI50

COC(=O)CCC(NC(=O)OC(C)(C)C)C(=O)NC(Cc1ccc([N+](=O)[O-])cc1)C(=O)NCC(=O)OCc1ccccc1 (stereo not given) (Boc-Glu(OMe)-[Phe(4-NO2)]-Gly-OBn; configuration not given here)
inactive: DU-145 > 100 µM | SF-268 37.2 µM | NCI/ADR-RES > 80.7 µM | OVCAR-3 > 100 µM | UO-31 > 100 µM | NCI-H460 > 100 µM | OVCAR-4 > 92.3 µM | CCRF-CEM 99.3 µM | CAKI-1 > 65.6 µM | SNB-75 18.6 µM | Malme-3M > 100 µM | TK-10 > 100 µM | A498 > 100 µM | BT-549 20.4 µM | SR > 53.8 µM | SF-539 28.4 µM | HOP-92 42.4 µM | NCI-H226 > 64.1 µM | HCC 2998 99.8 µM | Hs-578T 23 µM
